The data set in a line: Hydrogel degradation measured by swelling. Format: physicochemical. Particulars: pH 7.4. As for the experimental part:
Additionally, degradation was followed by measuring QM as a function of time. MS was measured at specific time points until gels lacked physical integrity. QM was calculated for each time point and normalized to the QM of the non-swollen network at time zero (MG/MD). Initial mesh size (ξ) and crosslink density (vc) were calculated via the Flory-[…] theory.

Regarding PEG-dithiolpropionate [PEG-DD2], the “Degradation Time” value amounted to 8.0 ± 0.5 days.

Values taken from patent publication US12398255B2, “Biocompatible crosslinkers for controlled degradation of polymer hydrogels” (Saint Louis University, priority 2020, dated 2025).
